Test: Pharmacokinetic study in rats after oral administration of the CP extract (UPLC–TQ-MS/MS of plasma)
Assay type: in vivo
Details: male, Sprague-Dawley, rat plasma, single oral gavage of CP extract 10.5 g/kg, n=6, mean ± SD; for Cmax: non-compartmental
Protocol: Plasma samples were thawed at room temperature before analysis. Then, 10 μl of IS solution (20 μg/ml) and 200 μl of methanol were added to the plasma sample (90 μl) in a 1.5 ml Eppendorf tube. The mixture was vortexed for 1 min and centrifuged at 12,000×g for 10 min at 4 °C to deproteinize. Thereafter, 2 μl of the supernatant was injected into the UPLC–TQ/MS system for analysis.
Six healthy male Sprague–Dawley rats were fasted for 12 h with free access to water prior to the experiment. The CP extract was administered to rats by oral gavage at a dose of 10.5 g/kg body weight. Blood samples of approximately 0.5 ml were collected at 15 and 30 min and at 1 h, 2 h, 3 h, 4 h, 6 h, 8 h, 10 h, 12 h, and 24 h in heparinized centrifuge tubes from the ophthalmic vein using a sterile capillary tube under anesthesia after oral administration of the CP extract. Following centrifugation at 4000×g for 10 min at 4 °C, plasma samples were transferred to polypropylene tubes and stored at − 80 °C until analysis.
The concentrations of six analytes in plasma at different time points were expressed as mean ± SD, which was calculated from the daily calibration curve. All the pharmacokinetic parameters were processed through non-compartmental analysis using the DAS 3.0 pharmacokinetic program. The maximum plasma concentration (Cmax) and time to reach the maximum concentrations (Tmax) were obtained directly from the curve.

SMILES | AUC(0-inf) [ng·h/mL] | AUC(0-t) [ng·h/mL] | Tmax [h] | half-life [h] | Cmax [ng/mL]
O=C(O)[C@H]1O[C@@H](Oc2c(-c3ccc(O)c(O)c3)oc3cc(O)cc(O)c3c2=O)[C@H](O)[C@@H](O)[C@@H]1O [Quercetin-3-O-glucuronide, quercetin-3-O-glucuronide] | 13500 | 11000 | 0.33 ± 0.13 | 10 ± 3.31 | 3710 ± 1590
O=C(/C=C/c1ccc(O)c(O)c1)O[C@@H]1C[C@](O)(C(=O)O)C[C@@H](O)[C@H]1O [Chlorogenic acid, chlorogenic acid] | 3580 ± 1200 | 3310 ± 1060 | 0.39 ± 0.13 | 2.54 ± 0.53 | 4170 ± 1890
O=c1c(O)c(-c2ccc(O)c(O)c2)oc2cc(O)cc(O)c12 [Quercetin, quercetin] | 91.7 ± 15.2 | 79.8 ± 28.5 | 0.46 ± 0.1 | 11.7 ± 6.01 | 28.6 ± 8.23
O=c1c(O)c(-c2ccc(O)cc2)oc2cc(O)cc(O)c12 [Kaempferol, kaempferol] | 325 ± 104 | 242 ± 77 | 0.67 ± 0.26 | 7.24 ± 1.63 | 122 ± 49.9
O=C(/C=C/c1ccc(O)c(O)c1)O[C@@H]1C[C@@](O)(C(=O)O)C[C@@H](O)[C@@H]1O [Neochlorogenic acid, neochlorogenic acid] | 2470 ± 943 | 2450 ± 952 | 0.32 ± 0.12 | 4.54 ± 1.38 | 4330 ± 1610
